Experimental data from BigSolDB 2.1.

C[C@H](N)C(=O)O
solubility (mole fraction)
Conditions	283.15 K	293.15 K	303.15 K	313.15 K	323.15 K
in acetone	7.1e-05	0.000116	0.000138	0.000166	0.000202
in acetonitrile	7.6e-05	0.000121	0.000157	0.000178	0.000209
in ethanol	0.000193	0.000226	0.000244	0.000251	0.00027
in ethyl acetate	7.8e-05	0.00014	0.00016	0.00018	0.000217
in isobutanol	0.000294	0.000314	0.000332	0.000346	0.000361
in isopropanol	8.2e-05	0.000144	0.000174	0.00019	0.000245
in methanol	0.000407	0.000428	0.00049	0.000531	0.00062
in n-butanol	0.000414	0.000449	0.000517	0.000611	0.000895
in n-pentanol	0.000216	0.000253	0.00032	0.000382	0.000465
in n-propanol	0.000122	0.000215	0.000261	0.000313	0.000452
in sec-butanol	0.000297	0.000333	0.000407	0.000552	0.000734
in water	0.0279	0.0308	0.0342	0.038	0.042
